The source of these data is ChEMBL document CHEMBL3988181, “GlaxoSmithKline Published Kinase Inhibitor Set 2 Onchocerca lienalis Screening Data”.

The experiment is described as follows: GSK PKIS2: Screen against O. lienalis microfilariae, single point, at 3.1uM to assess reduction in motility. Compounds were also tested for cytotoxicity against Rhesus Monkey LLCMK2 cells. It counts as functional, Onchocerca lienalis, LLC-MK2. The settings on record: CELL_LINE LLCMK2; CELL_SUPPLIER ECACC; CONC 3.1 uM; ORGANISM_SUPPLIER Extracted from peri-umbilical skin obtained from naturally infected cattle in the UK; temperature 37 degree C.

In the case of `NCC(NC(=O)c1cc(-c2ccccc2)c(-c2ccnc3[nH]ccc23)s1)c1ccccc1` (stereo not given), the “MOTILITY REDUCTION/CYTOTOXICITY” value is given as 0%.
As for `COC(=O)Nc1nc2ccc(Oc3ccc(NC(=O)Nc4cccc(SC)c4)cc3)cc2[nH]1`, the “MOTILITY REDUCTION/CYTOTOXICITY” value turned out to be 20%.
Turning to `COc1cccc(NC(=O)NC2CCN(c3ccnc(Nc4ccc(F)cc4)n3)C2)c1` (stereo not given), the “MOTILITY REDUCTION/CYTOTOXICITY” value was determined as 13.4%.
With `Cc1c(Cn2c(C)c(C)n3c(=O)cc(N4CCOCC4)nc23)cccc1C(F)(F)F` the figure was 0%.
As for `COCCNC(=O)c1ccc(-c2cc(C(=O)NC3CC3)cc(F)c2C)cc1`, the “MOTILITY REDUCTION/CYTOTOXICITY” value amounted to 0%.
With `Fc1ccc(-c2nn3cccc(F)c3c2-c2ccncc2)cc1` the figure was 0%; with `CCn1c(-c2cccnc2O)nc2cnccc21`, 13.4%; with `Cc1ccc(F)c(C(=O)Nc2cccc(-c3nn4ccccc4c3-c3ccnc(Nc4cccc(F)c4)n3)c2)c1F`, 0%.
Regarding `Cc1cc(C)cc(Oc2nccc(-c3c(-c4ccc(F)cc4)ncn3C3CCNCC3)n2)c1`, the “MOTILITY REDUCTION/CYTOTOXICITY” value was 20%.
For `O=c1[nH]cc(-c2ccc(O)cc2)c2sc(-c3ccncc3)cc12` the value was 0%.
Regarding `C[C@@H](Oc1cc(-n2cnc3cc(-c4ccncc4)ccc32)sc1C(N)=O)c1ccccc1Cl`, the “MOTILITY REDUCTION/CYTOTOXICITY” value amounted to 0%.
In the case of `Cc1ccc2c(-c3ccnc(Nc4ccc(C(F)(F)F)cc4)n3)cnn2n1`, the “MOTILITY REDUCTION/CYTOTOXICITY” value was found to be 0%.
Turning to `Cc1cc(N2Cc3ccccc3C2)nc(Nc2ccc(S(=O)(=O)N3CCOCC3)cc2)n1`, the “MOTILITY REDUCTION/CYTOTOXICITY” value is recorded as 0%.
Regarding `COc1ccccc1CNC(=O)c1cc(C(=O)c2ccccc2C)c[nH]1`, the “MOTILITY REDUCTION/CYTOTOXICITY” value turned out to be 86.7%.
For `Cc1cccc(-c2nc(Nc3ccc4ncsc4c3)c3ccccc3n2)n1`, the “MOTILITY REDUCTION/CYTOTOXICITY” value is recorded as 100%.
Regarding `Cc1ccc(NC(=O)Nc2ccc(Cl)cc2)cc1-c1ccc(C(=O)Nc2ccncc2)cc1`, the “MOTILITY REDUCTION/CYTOTOXICITY” value is 86.7%.
Take `O=C1NC(=O)C(c2ccc(Cl)cc2)=C1Nc1cccc(O)c1`: the “MOTILITY REDUCTION/CYTOTOXICITY” value was found to be 13.4%.
With `COc1ccc(Nc2nccc(NCCNC(=O)Nc3cc(C)ccc3C)n2)cc1` the figure was 33.4%; with `O=S(=O)(c1ccc(-c2ccnc3[nH]ccc23)cc1)N1CCCC1`, 0%.
Turning to `CN1CCN(CCCNc2nccc(-c3c(-c4ccc(F)cc4)nn4cc(C(F)(F)F)ccc34)n2)CC1`, the “MOTILITY REDUCTION/CYTOTOXICITY” value is 0%.
With `Nc1nc(-c2cccnc2)c(-c2ccnc3ccccc23)s1`, the “MOTILITY REDUCTION/CYTOTOXICITY” value amounted to 33.4%.
Consider `COc1ccc(Nc2nccc(-c3ccc(NC(=O)c4cc5cc(F)ccc5[nH]4)cc3)n2)cc1`, for which the “MOTILITY REDUCTION/CYTOTOXICITY” value is recorded as 60%.
Consider `CCn1c(-c2ccoc2)nc2cnccc21`, for which the “MOTILITY REDUCTION/CYTOTOXICITY” value was determined as 0%.
For `Nc1cccc(-c2ccc3c(N)n[nH]c3c2)c1` the value was 33.4%.
Take `N#CCc1ccc(Nc2nccc(Nc3ccc(Oc4ccccc4)cc3)n2)cc1`: the “MOTILITY REDUCTION/CYTOTOXICITY” value was 20%.
In the case of `FC(F)(F)c1ccc(-c2ncn(CCCN3CCOCC3)c2-c2ccncc2)cc1`, the “MOTILITY REDUCTION/CYTOTOXICITY” value is listed as 40%.
Regarding `Nc1nccc(-c2ccc3c(N)n[nH]c3c2)n1`, the “MOTILITY REDUCTION/CYTOTOXICITY” value came to 0%.
As for `O=C(NCCCN1CCOCC1)c1cccc(Nc2nccc(Nc3ccc(Oc4ccccc4)cc3)n2)c1`, the “MOTILITY REDUCTION/CYTOTOXICITY” value was found to be 13.4%.
For the compound `O=C(Nc1n[nH]c2nc(-c3ccccc3)c(Cl)cc12)C1CC1`, the “MOTILITY REDUCTION/CYTOTOXICITY” value came out at 0%.
Take `Fc1cc(Cl)ccc1Nc1ccnc2cc(-c3ccc(CN4CCOCC4)o3)ccc12`: the “MOTILITY REDUCTION/CYTOTOXICITY” value was found to be 0%.
With `COC(=O)C(Cc1ccccc1)NC(=O)NC1CCN(c2ccnc(Nc3ccc(F)cc3)n2)C1` (stereo not given), the “MOTILITY REDUCTION/CYTOTOXICITY” value was found to be 13.4%.
Regarding `COc1cccc(NC(=O)Nc2ccc(C)c(-c3ccc(C(=O)Nc4ccncc4)cc3)c2)c1`, the “MOTILITY REDUCTION/CYTOTOXICITY” value came to 100%.
Consider `COC(=O)C(NC(=O)NC1CCN(c2ccnc(Nc3ccc(F)cc3)n2)C1)c1ccccc1` (stereo not given), for which the “MOTILITY REDUCTION/CYTOTOXICITY” value came to 0%.
For `O=C(Nc1n[nH]c2nc(-c3nccs3)c(Br)cc12)C1CCCC1`, the “MOTILITY REDUCTION/CYTOTOXICITY” value is given as 20%.
With `COc1cc(Nc2nccc(N3CCC(NC(=O)Nc4cc(C)ccc4C)C3)n2)cc(OC)c1OC` (stereo not given) the figure was 0%; with `CN(c1ccc2c(c1)nc(NCc1ccc(F)cc1)n2C)c1ccnc(Nc2ccc(CS(C)(=O)=O)cc2)n1`, 0%.
As to `c1ccc(Oc2ccc(Nc3ccnc4cc(-c5ccc(CN6CCCCC6)o5)ccc34)cc2)nc1`, the “MOTILITY REDUCTION/CYTOTOXICITY” value is listed as 20%.
In the case of `Nc1ncc(-c2cn[nH]c2)c2scc(-c3ccc4c(c3)CCN4C(=O)Cc3ccccc3)c12`, the “MOTILITY REDUCTION/CYTOTOXICITY” value was 0%.
Regarding `O=c1[nH]ccc2nc(N[C@@H]3CCCNC3)nc(Nc3ccc(S(=O)(=O)N4CCOCC4)cc3)c12`, the “MOTILITY REDUCTION/CYTOTOXICITY” value is listed as 46.7%.
As to `O=C(Nc1ccc2c(c1)OCO2)NC1CCN(c2ccnc(NCc3ccc(F)cc3)n2)CC1`, the “MOTILITY REDUCTION/CYTOTOXICITY” value came out at 33.4%.
With `O=C1NC(=O)C(N2CCc3ccccc32)=C1c1ccccc1Cl` the figure was 20%; with `CN(C(=O)c1ccc(-c2cc(-c3c[nH]nc3-c3ccccn3)ccn2)cc1)C1CCOCC1`, 0%.
Consider `COc1cc2nccc(Nc3ccc(NC(=O)c4ccc(C)cc4)c(O)c3)c2cc1OC`, for which the “MOTILITY REDUCTION/CYTOTOXICITY” value amounted to 0%.
As for `O=C(Nc1n[nH]c2nc(-c3cccs3)c(Br)cc12)C1CC1`, the “MOTILITY REDUCTION/CYTOTOXICITY” value is recorded as 0%.
Take `COC(=O)c1cccc(NC(=O)NC2CCN(c3ccnc(Nc4cc(OC)c(OC)c(OC)c4)n3)C2)c1` (stereo not given): the “MOTILITY REDUCTION/CYTOTOXICITY” value is 66.7%.
Take `O=C(Nc1n[nH]c2nc(-c3ccccc3O)ccc12)C1CC1`: the “MOTILITY REDUCTION/CYTOTOXICITY” value was 0%.
With `Nc1nccc(-c2c(-c3ccc(F)cc3)ncn2C2CCN(CC(F)(F)F)CC2)n1`, the “MOTILITY REDUCTION/CYTOTOXICITY” value came to 0%.
With `c1ccc(Cn2cnc3cc(Nc4ncnc5ccccc45)ccc32)cc1`, the “MOTILITY REDUCTION/CYTOTOXICITY” value was determined as 16.7%.
`NC(=O)c1cc(-c2ccccc2)cc2c(C3CCNCC3)c[nH]c12`: the “MOTILITY REDUCTION/CYTOTOXICITY” value was 0%.
Consider `COc1nccc(-c2c(-c3ccc(F)cc3)ncn2CCCN2CCOCC2)n1`, for which the “MOTILITY REDUCTION/CYTOTOXICITY” value stood at 0%.
For the compound `CN(c1ccc(NC(=O)Nc2cccc(Cl)c2)cc1)c1ccnc(N)n1`, the “MOTILITY REDUCTION/CYTOTOXICITY” value worked out at 13.4%.
With `COc1cc(Nc2nccc(N3CCC(NC(=O)C4COc5ccccc5O4)C3)n2)cc(OC)c1OC` (stereo not given), the “MOTILITY REDUCTION/CYTOTOXICITY” value is recorded as 0%.
For the compound `C[C@@H]1CC[C@H](C(=O)NC2CCCCC2)CN1c1cc(-c2ccc3c(N)n[nH]c3c2)nc(N)n1`, the “MOTILITY REDUCTION/CYTOTOXICITY” value came to 0%.
In the case of `CSc1ccc(NC2=C(c3ccccc3Cl)C(=O)NC2=O)cc1`, the “MOTILITY REDUCTION/CYTOTOXICITY” value was 0%.
On to `Cc1c(O)cccc1Nc1ccnc2ccc(C(F)(F)F)cc12`, for which the “MOTILITY REDUCTION/CYTOTOXICITY” value is given as 40%.
For `COc1ccc(C[C@@H](CN)NC(=O)c2cc(Br)c(-c3ccnc4[nH]ccc34)s2)cc1` the value was 33.4%; for `Cc1ccc(-c2cc(-c3c[nH]nc3-c3ccccn3)ccn2)cc1`, 0%; for `NC(=O)c1cccc(Nc2nccc(Nc3ccc(Oc4c(Cl)cccc4Cl)c(Cl)c3)n2)c1`, 0%.
For `COc1cc(Nc2nccc(N3CCC(NC(=O)c4cccc(C#N)c4)C3)n2)cc(OC)c1OC` (stereo not given), the “MOTILITY REDUCTION/CYTOTOXICITY” value was 0%.
For `O=C(NCCNc1ccnc(Nc2ccc(F)cc2)n1)Nc1ccc2c(c1)OCO2` the value was 0%.
For `COc1cc(Nc2ncc3c(C)nc(-c4cc5ccccc5[nH]4)n3n2)cc(OC)c1OC` the value was 53.4%.
On to `O=C1NC(=O)C(c2ccccc2)=C1Nc1ccc(Cl)c(C(=O)O)c1`, for which the “MOTILITY REDUCTION/CYTOTOXICITY” value is 0%.
For `Nc1ncnc2c1nc(-c1ccccc1)n2-c1ccccc1` the value was 0%; for `CN1CCN(CCNc2nc3ccc(Oc4ccc(NC(=O)Nc5cc(C(F)(F)F)ccc5F)cc4)cc3[nH]2)CC1`, 0%.
For `COc1ccc(Nc2nccc(N3CCC(NS(=O)(=O)c4ccc(NC(C)=O)cc4)C3)n2)cc1` (stereo not given), the “MOTILITY REDUCTION/CYTOTOXICITY” value is 33.4%.
With `O=c1cc(N2CCOCC2)nc2n(Cc3cccc(F)c3)ccn12`, the “MOTILITY REDUCTION/CYTOTOXICITY” value stood at 0%.
For `OCCCNc1nccc(-c2c(-c3cccc(C(F)(F)F)c3)nn3cc(C(F)(F)F)ccc23)n1`, the “MOTILITY REDUCTION/CYTOTOXICITY” value was 0%.
With `Cn1cc(-c2ccc3c(c2)CCN3C(=O)Cc2cccc(Cl)c2)c2c(N)ncnc21` the figure was 0%.
With `NS(=O)(=O)c1cccc(N/C=C2\C(=O)Nc3ccc(S(=O)(=O)Cc4c(Cl)cccc4Cl)cc32)c1`, the “MOTILITY REDUCTION/CYTOTOXICITY” value came to 33.4%.
Consider `COc1ccc(Nc2nccc(N3CCC(NC(=O)c4cccc(C#N)c4)C3)n2)cc1` (stereo not given), for which the “MOTILITY REDUCTION/CYTOTOXICITY” value was 0%.
Turning to `COC(=O)Nc1nc2ccc(Oc3ccc(NC(=O)Nc4cc(C(F)(F)F)ccc4F)cc3)cc2n1C`, the “MOTILITY REDUCTION/CYTOTOXICITY” value was determined as 0%.
Turning to `COc1ccc(Nc2nccc(N3CCC(NC(=O)C(C)c4ccc(Cl)cc4)C3)n2)cc1` (stereo not given), the “MOTILITY REDUCTION/CYTOTOXICITY” value came out at 33.4%.
As for `Fc1ccc(-c2nc[nH]c2-c2ccncc2)cc1`, the “MOTILITY REDUCTION/CYTOTOXICITY” value is recorded as 0%.
With `CN1C(=O)C(Nc2cc(Cl)c(O)c(Cl)c2)=C(c2ccc(Cl)cc2)C1=O`, the “MOTILITY REDUCTION/CYTOTOXICITY” value is recorded as 0%.
In the case of `CS(=O)(=O)CCNCc1nc(-c2ccc3ncnc(Nc4ccc(OCc5cccc(F)c5)c(Cl)c4)c3c2)cs1`, the “MOTILITY REDUCTION/CYTOTOXICITY” value is 0%.
On to `O=C(Nc1n[nH]c2nc(-c3cccs3)c(Br)cc12)C1CCCC1`, for which the “MOTILITY REDUCTION/CYTOTOXICITY” value is 0%.
`COc1cccc(NC(=O)NC2CCN(c3ccnc(Nc4cc(OC)c(OC)c(OC)c4)n3)C2)c1` (stereo not given): the “MOTILITY REDUCTION/CYTOTOXICITY” value is listed as 86.7%.
Regarding `Fc1ccc(-c2nn3c(OCC(F)(F)F)cccc3c2-c2ccncc2)cc1`, the “MOTILITY REDUCTION/CYTOTOXICITY” value is given as 13.4%.
As for `COc1cccc(C2=C(Nc3cccc(C(=O)O)c3)C(=O)NC2=O)c1`, the “MOTILITY REDUCTION/CYTOTOXICITY” value is 0%.
As for `O=C1NC(=O)C(N2CCc3ccccc32)=C1c1cccc(Cl)c1`, the “MOTILITY REDUCTION/CYTOTOXICITY” value turned out to be 0%.
